Reference: patent US20060110456A1, “Method for biocidal and/or biostatic treatment and compositions therefor” (NATIONAL UNIVERSITY OF SINGAPORE, priority 2004, published 2006)
Where “and” joins values, the source holds several entries; their conditions need not be identical. Identical values can stand only once. Entries after “also recorded” stand apart in the source; their conditions may differ. Counter-ions that a name gives are not always drawn. Like-named read-outs stand apart in the source and are kept apart here.

Key:
barnacle nauplii = experiment: Toxicity of drugs under different light conditions and over time (stability in seawater); format: in vivo, Balanus amphitrite; conditions: 25 ug ml^−1 seawater suspension; for Change in toxicity on ageing in seawater, 12L:12D condition: 12 h light and 12 h dark, after 4 weeks
Description: Preliminary experiments were carried out to examine the chemical stability of the drugs. 25 ug ml^−1 seawater suspensions of the drugs were prepared, in 3 replicates per condition, 3 replicate tubes containing 15 ml per test tube per prepared for each treatment type. The treatments consisted of: • i. Dark condition: tubes were wrapped in aluminium foil and kept in the dark at all times • ii. 12L:12D condition, where the tubes were subject incubated in a plant growth chamber with light regime of 12 hours light and 12 hours dark. • iii. UV treated tubes were subject to UV for half an hour. […] Sets (1) & (2) were tested at week 0, 1, 2 and after 4 weeks. “UV” set is only assayed after UV treatment. […] Effect of UV

[1] = tested on: biofilm bacteria (strains 4, 9, 14, 20, 27, 28); experiment: Effect of pharmaceuticals on adhesion of bacteria to plastic / biofilm formation on NTC and TC plates; format: cell-based, marine bacteria isolated from Singapore fouling communities; conditions: for Effect on formation of bacterial biofilms on NTC and TC plates: 25 ug ml−1, NTC = untreated polystyrene, TC = tissue-culture treated, strains 4, 9, 14, 20, 27, 28; for Prevention of formation of biofilm: crude rank, best (1) to worst (8)
Description: Commercial forms of pharmaceuticals were used as previously described. […] These samples were sonicated for at least 1 min and these fine suspensions were used as initial stock solutions.
For studies of bacterial adhesion, the pharmaceuticals were first sterilized by soaking in absolute alcohol (Merck) for half an hour. Ethanol was removed by air-drying with air passed through 0.25 μm pore size syringe filter (Sartorius, Germany). Stock solutions were concentrations of 100 μg ml−1 in SDI.
The effect of pharmaceuticals on bacterial adhesion was analyzed using a modified microplate method adapted from Shea and Williamson (1990). This method employs a combination of staining attached bacteria with crystal violet, releasing the stain with sodium desoxycholate, and measuring the resulting absorbance of the crystal violet.
Detailed results for six selected strains are presented here: strains 4, 9, 14, 20, 27, 28. The bacterial strains were grown in Marine Broth (Pronadisa, Spain) overnight, in the dark, at 28° C. on a rotary shaker (150 rpm) in 5 ml centrifuge tubes (Falcon). Cells were harvested by centrifugation (1500×g, 10 min) and resuspended in sterile seawater (SSW). SSW was prepared by filtering seawater through a 0.2 μm pore size filter (Sartorius) followed by autoclaving. The cells were centrifuged and resuspended once more in SSW. The concentration of resuspended cells was adjusted to A600=1.0 using a spectrophotometer (Beckman DU530, USA).
Flat bottom 96 well polystyrene (hydrophobic, Falcon 351172) (=NTC) and tissue-culture treated polystyrene (hydrophilic, Falcon 353072) (=TC) microplates were used in the analyses. Each test was performed in triplicate. Two sets of experiments were conducted. […] For the control and blank wells, 25 ul of SDI were added. For wells containing pharmaceuticals, 25 ul of the respective pharmaceutical at a concentration of 100 ug ml−1 were added. This was immediately followed by the addition of 75 ul of bacterial suspension. To blanks were added 75 ul of SSW.
The bacterial cells in suspension were allowed to attach for 2 h at 28° C. Unattached cells were removed by aspiration using a plate washer (Tecan, Austria) and wells were rinsed three times with 200 ul of SSW each time. The attached cells were stained with 200 ul of crystal violet solution (0.1% w/v in deionized water) in each well for 5 min. After removing the stain using the plate washer, the wells were rinsed twice with 300 ul of SDI each time. Sodium desoxycholate (200 ul) solution (2% w/v in deionized water) was added to each well to extract the crystal violet from the attached stained cells for 10 min. The absorbance of the crystal violet was read at 590 nm using a microplate reader (Sunrise, Tecan, Austria).
Results of the adhesion assay were obtained by the difference in absorbance readings between wells containing bacterial cells and the mean of absorbance of those containing the SSW only. The effect of the pharmaceuticals on bacterial adhesion was determined by the examining the differences in absorbance between the wells containing the pharmaceuticals+bacteria and the bacteria. The significance was compared using T-test.

[2] = tested on: marine bacteria (26 strains); experiment: Disk inhibition assay; format: cell-based, marine bacteria isolated from Singapore fouling communities
Procedure, shortened: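 Tablets or capsule powders suspended in sterile water at 2 mg ml^−1 and loaded onto disks; antibiotic discs (Amp, Ery, Str, Tet) served as comparison. Disks placed on swabbed lawns on Marine Agar, incubated overnight in the dark at 30° C. Zone of clearing diameter measured by calipers; three replicates on three occasions.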

SMILES | Change in toxicity on ageing in seawater, 12L:12D condition (barnacle nauplii) | Effect of UV on drug toxicity to barnacle nauplii (barnacle nauplii; UV for half an hour) | Effect on formation of bacterial biofilms on NTC and TC plates ([1]; hydrochloride) | Prevention of formation of biofilm [1] | Antibiotic activity against marine bacteria ([2]; 25 or 50 μg per disc, in words) | Antibiotic activity against marine bacteria ([2]; crude rank, best (1) to worst (8)) | Effect on formation of bacterial biofilms on NTC and TC plates [1] | Antibiotic activity against marine bacteria [2]
Cc1nccn1CC1CCc2c(c3ccccc3n2C)C1=O (stereo not shown) [ZFN, ondansetron hydrochloride] | increased in toxicity | reduction in toxicity under UV | reduced bacterial adhesion of the 6 strains to the NTC plates; also recorded: only slight activity (p<0.1) against strain 4 on the TC plates; also recorded: marked reduction of biofilm growth for most on NTC but not on TC | 2 | did not have any appreciable antibiotic activity against marine bacteria | 8 |  | 
Cc1cc2c(s1)Nc1ccccc1N=C2N1CCN(C)CC1 [ZPX, olanzapine] | marked decrease in toxicity |  |  | 1 |  |  | prevented biofilm formation for all 6 strains in the NTC plates, and slightly reduced the biofilm formation in strains 4 on the TC plates; also recorded: marked reduction of biofilm growth for all strains on NTC, but only a slight reduction for strain 4 on TC | did not have any appreciable antibiotic activity against marine bacteria and 8
